Results reported in US20230165867A1 (CHENGDU BAIYU PHARMACEUTICAL CO., LTD., priority 2020, published 2023).
Read-outs that look alike come from different tables or passages of the source.

Key:
[1] = Metabolic stability in liver microsomes; assay type: in vitro ADME, human; conditions: 0.5 µM test substance, 0.5 mg/mL microsomes, NADPH and UDPGA, 37° C.; for half-life at 0.5 µM: human, human liver microsomes, read-out: T½(min), stability in human liver microsomes
Protocol: Liver microsomes (purchased from Reed Liver Disease Research (Shanghai) Co., Ltd., product: human liver microsomes (NJT)); NADPH (purchased from Roche, Lot: 40939); UDPGA; the compounds of the present invention (test substances).
• (1) A mixed working solution of testosterone (0.5 µM) and 7-hydroxycoumarin (0.5 µM) was prepared. • (2) A mixed solution of NADPH (1 mM) and UDPGA (1 mM) was prepared, and prewarmed at 37° C. in a water bath shaker before use. • (3) Liver microsomes were thawed and diluted with a buffer. • (4) A preparation of a test substance (0.5 µM) and a solution of liver microsomes (0.5 mg/mL) were added to each well of an incubation plate. • (5) Three experimental groups were set and samples were added. Test group: the test substance was incubated with liver microsomes for 0 min, 30 min, 60 min, and 120 min in the presence of the coenzyme NADPH and UDPGA; Positive control group: testosterone (0.5 µM) and 7-hydroxycoumarin (0.5 µM) were incubated with microsomes for 0 min and 120 min in the presence of the coenzyme NADPH and UDPGA; Negative control group: the test substance was incubated with microsomes for 0 and 120 min without any coenzyme. • (6) All samples were incubated at 37° C., and pre-cooled methanol was added at each termination time (0, 15, 30, 45, 60 min, 120 min) to terminate the reaction, and the time was recorded. • (7) All samples were mixed well and centrifuged at 4000 rpm for 10 min. The supernatant was taken and measured by LC-MS/MS for the amount of the test substance remaining in the samples. Data analysis was carried out as follows: T½=0.693 /k, Clint = (0.693/T½) × (1 /(microsomal protein) × Scaling Factors), Note: k is the slope of the logarithm of the remaining amounts of compound versus time.

[2] = molecular target: T1, DNA-PK kinase (Homo sapiens, UniProt P78527); test: Inhibition assay of DNA-PK kinase (Promega kit, ADP-Glo chemiluminescence); assay type: biochemical; conditions: 50 µM ATP, 37° C., 60 min; read-out: IC50 (nM), inhibitory activity on DNA-PK kinase
T1 construct: purchased Promega V4107
Protocol: The inhibitory activity of the compounds on DNA-PK kinase was measured by using a DNA-PK kinase assay kit (purchased from Promega, Cat.#: V4107, Lot: 0000366495). The results were quantified by chemiluminescence, and the detailed experimental protocol was as follows: • i. An ADP-fluorescence standard curve over a range of concentrations was plotted according to the kit instructions; • ii. […] The mixtures were mixed well, centrifuged (1000 rpm, 30 s), and incubated at 37° C. for 60 min; • iv. 5 µL of ADP-Glo™ Reagent was added to stop the reaction, which was then mixed well, centrifuged (1000 rpm, 30 s), and incubated at room temperature for 40 min; • v. 10 µL Kinase Detection Reagent was added, and the mixture was mixed well by shaking, centrifuged (1000 rpm, 30 s), and incubated at room temperature for 30 min; • vi. The […] was measured by using a microplate reader (Thermo fisher, Varioskan LUX).

[3] = Pharmacokinetic assay in ICR mice (i.v. and p.o.); assay type: in vivo; conditions: mouse, plasma, male ICR mice; for half-life: read-out: T½ (converted); for bioavailability: po 10 mg/kg vs iv 1 mg/kg
Protocol: ICR mice were purchased from Beijing Vital River Laboratory Animal Technology Co., Ltd.
3.2 Experimental procedure • (1) Healthy male ICR mice (18-22 g) were prepared, with 18 mice for each compound. The mice were divided into 2 groups (an i.v. group and a p.o. group), with 9 mice per group. 3 mice were picked for blood collection at each time point. • (2) After the animals were fasted overnight (with free access to water), the compound of the present invention dissolved (or suspended) in a solvent of 5% DMSO and 95% 30% HP-β-CD (v:v) was administered via the tail vein (i.v., 1 mg/kg) or intragastrically (p.o., 10 mg/kg), respectively. • (3) For the i.v. group, 0.1 mL blood was collected from the submandibular vein 5 min, 15 min, 0.5 h, 1 h, 2 h, 4 h, 8 h, 12 h, and 24 h after administration, respectively, anticoagulated with EDTA-K2, and centrifuged at 4° C. for 5 min to obtain plasma, which was stored at -20° C. until testing. (4) For the p.o. group, 0.1 mL blood was collected from the submandibular vein before administration and 15 min, 0.5 h, 1 h, 2 h, 4 h, 6 h, 8 h, 12 h, and 24 h after administration, and treated in the same manner as that for the intravenous group. • (5) The concentration of the compound of the present invention in plasma was measured by LC/MS/MS. • (6) Calculation and fitting were performed with Analyst 1.6 from AB Company, and the results are shown in Table 3.

| half-life at 0.5 µM [1] [min] | IC50 [2] [nM] | Structure (SMILES) | also measured |
| --- | --- | --- | --- |
| > 120 | 5.7 | [2H]C([2H])([2H])NC(=O)c1cc(C)c(Nc2ncc3c(n2)n(C2CCOCC2)c(=O)n3C)cn1 [Compound 39, 4-Methyl-N-(methyl-d3)-5-((7-methyl-8-oxo-9-(tetrahydro-2H-pyran-4-yl)-8,9-dihydro-7H-purin-2-yl)amino)picolinamide] |  |
| > 120 | 1.1 | [2H]C([2H])([2H])c1cc(C(N)=O)c(F)cc1Nc1ncc2c(n1)n(C1CCOCC1)c(=O)n2C [Compound 44, 2-Fluoro-5-(methyl-d3)-4-((7-methyl-8-oxo-9-(tetrahydro-2H-pyran-4-yl)-8,9-dihydro-7H-purin-2-yl)amino)benzamide] |  |
| > 120 | 0.43 | Cc1cc(C(N)=O)c(F)cc1Nc1ncc2c(n1)n(C1CCC(F)(F)CC1)c(=O)n2C [Compound 83, 4-((9-(4,4-difluorocyclohexyl)-7-methyl-8-oxo-8,9-dihydro-7H-purin-2-yl)amino)-2-fluoro-5-methylbenzamide] |  |
| > 120 | 0.75 | Cc1cc(C(N)=O)c(F)cc1Nc1ncc2c(n1)n([C@H]1C[C@H](O)C1)c(=O)n2C [Compound 93, 2-Fluoro-4-((9-(trans-3-hydroxycyclobutyl)-7-methyl-8-oxo-8,9-dihydro-7H-purin-2-yl)amino)-5-methylbenzamide] |  |
| > 120 | 1.96 | Cc1cc(C(N)=O)c(C(F)(F)F)cc1Nc1ncc2c(n1)n(C1CCOCC1)c(=O)n2C [Compound 48, 5-Methyl-4-((7-methyl-8-oxo-9-(tetrahydro-2H-pyran-4-yl)-8,9-dihydro-7H-purin-2-yl)amino)-2-(trifluoromethyl)benzamide] |  |
| > 120 | 0.32 | CCOc1cc(Nc2ncc3c(n2)n(C2CCOCC2)c(=O)n3C)c(C)cc1C(N)=O [Compound 53, 2-Ethoxy-5-methyl-4-((7-methyl-8-oxo-9-(tetrahydro-2H-pyran-4-yl)-8,9-dihydro-7H-purin-2-yl)amino)benzamide] |  |
| > 120 | 11.7 | Cc1cc(C#N)c(F)cc1Nc1ncc2c(n1)n(C1CCOCC1)c(=O)n2C [Compound 8, 2-Fluoro-5-methyl-4-((7-methyl-8-oxo-9-(tetrahydro-2H-pyran-4-yl)-8,9-dihydro-7H-purin-2-yl)amino)benzonitrile] |  |
|  | 0.038 | Cc1cc(C#N)ccc1Nc1ncc2c(n1)n([C@H]1CC[C@@H](C#N)CC1)c(=O)n2C [Compound 78, 4-((9-(cis-4-cyanocyclohexyl)-7-methyl-8-oxo-8,9-dihydro-7H-purin-2-yl)amino)-3-methylbenzonitrile] | AUC ([3]; iv, 1 mg/kg): 0.216 µg·h/mL; half-life ([3]; iv, 1 mg/kg): 1.17 h; bioavailability [3]: 65.2%; AUC ([3]; po, 10 mg/kg): 1.2 µg·h/mL; Cmax ([3]; po, 10 mg/kg): 0.446 µg/mL; half-life ([3]; po, 10 mg/kg): 3.5 h |
| > 120 | 3.98 | COc1cc(Nc2ncc3c(n2)n(C2CCOCC2)c(=O)n3C)c(C)cc1C(N)=O [Compound 57, 2-Methoxy-5-methyl-4-((7-methyl-8-oxo-9-(tetrahydro-2H-pyran-4-yl)-8,9-dihydro-7H-purin-2-yl)amino)benzamide] |  |
| > 120 |  | [2H]C([2H])([2H])c1cc(C#N)ccc1Nc1ncc2c(n1)n(C1CCOCC1)c(=O)n2C (single isomer, unassigned) [Compound 25, 3-(Methyl-d3)-4-((7-methyl-8-oxo-9-(tetrahydro-2H-pyran-4-yl)-8,9-dihydro-7H-purin-2-yl)amino)benzonitrile] |  |
|  |  | Cc1cc(C(N)=O)c(F)cc1Nc1ncc2c(n1)n(C1CCC(C)(C#N)CC1)c(=O)n2C (single isomer, unassigned) [Compound 92-2, 4-((9-(4-cyano-4-methylcyclohexyl)-7-methyl-8-oxo-8,9-dihydro-7H-purin-2-yl)amino)-2-fluoro-5-methylbenzamide] | T½(min), stability in human liver microsomes [1]: >120 min |
| > 120 |  | Cc1cc(C(N)=O)c(F)cc1Nc1ncc2c(n1)n([C@H]1CC[C@@](C)(O)CC1)c(=O)n2C [Compound 72, 2-Fluoro-4-((9-(cis-4-hydroxy-4-methylcyclohexyl)-7-methyl-8-oxo-8,9-dihydro-7H-purin-2-yl)amino)-5-methylbenzamide] | AUC ([3]; iv, 1 mg/kg): 1.7 µg·h/mL; half-life ([3]; iv, 1 mg/kg): 2.92 h; bioavailability [3]: 166%; AUC ([3]; po, 10 mg/kg): 28.2 µg·h/mL; Cmax ([3]; po, 10 mg/kg): 4.68 µg/mL; half-life ([3]; po, 10 mg/kg): 2.58 h |
| > 120 |  | Cc1cc(C(N)=O)c(F)cc1Nc1ncc2c(n1)n([C@H]1CC[C@](C)(O)CC1)c(=O)n2C [Compound 73, 2-Fluoro-4-((9-(trans-4-hydroxy-4-methylcyclohexyl)-7-methyl-8-oxo-8,9-dihydro-7H-purin-2-yl)amino)-5-methylbenzamide] | AUC ([3]; iv, 1 mg/kg): 0.239 µg·h/mL; half-life ([3]; iv, 1 mg/kg): 1.24 h; bioavailability [3]: 56%; AUC ([3]; po, 10 mg/kg): 1.27 µg·h/mL; Cmax ([3]; po, 10 mg/kg): 0.484 µg/mL; half-life ([3]; po, 10 mg/kg): 2.5 h |
| > 120 |  | Cc1cc(C(N)=O)c(F)cc1Nc1ncc2c(n1)n(C1CCC(C)(C#N)CC1)c(=O)n2C (single isomer, unassigned) [Compound 92-1, 4-((9-(4-cyano-4-methylcyclohexyl)-7-methyl-8-oxo-8,9-dihydro-7H-purin-2-yl)amino)-2-fluoro-5-methylbenzamide] |  |
| > 120 | 47.1 | Cc1cc(C(N)=O)c(F)cc1Nc1ncc2c(n1)n(C1CCNCC1)c(=O)n2C [Compound 81, 2-Fluoro-5-methyl-4-((7-methyl-8-oxo-9-(piperidin-4-yl)-8,9-dihydro-7H-purin-2-yl)amino)benzamide] |  |
| > 120 | 1.25 | Cc1cc(C(N)=O)c(F)cc1Nc1ncc2c(n1)n(C1CCCOC1)c(=O)n2C (centres unmarked) [Compound 69, 2-fluoro-5-methyl-4-((7-methyl-8-oxo-9-(tetrahydro-2H-pyran-3-yl)-8,9-dihydro-7H-purin-2-yl)amino)benzamide] |  |
|  | 4.17 | CCn1c(=O)n(C2CCOCC2)c2nc(Nc3cc(F)c(C(N)=O)cc3C)ncc21 [Compound 62, 4-((7-ethyl-8-oxo-9-(tetrahydro-2H-pyran-4-yl)-8,9-dihydro-7H-purin-2-yl)amino)-2-fluoro-5-methylbenzamide] | AUC ([3]; iv, 1 mg/kg): 1.19 µg·h/mL; half-life ([3]; iv, 1 mg/kg): 1.69 h; bioavailability [3]: 44.8%; AUC ([3]; po, 10 mg/kg): 4.72 µg·h/mL; Cmax ([3]; po, 10 mg/kg): 1.85 µg/mL; half-life ([3]; po, 10 mg/kg): 3.01 h |
| > 120 | 24.5 | Cc1cc(C(N)=O)c(F)cc1Nc1ncc2c(n1)n(C1CCN(C)CC1)c(=O)n2C [Compound 82, 2-Fluoro-5-methyl-4-((7-methyl-9-(1-methylpiperidin-4-yl)-8-oxo-8,9-dihydro-7H-purin-2-yl)amino)benzamide] |  |
